From patent US6503881B2 (priority 1996, dated 2003)
Like-named read-outs stand apart in the source and are kept apart here.

Key:
a bacterial strain = type: cell-based
A. calcoaceticus = assay: Overcoming inherent resistance, MIC alone and in combination (agarose dilution); type: cell-based; conditions: A. calcoaceticus AC001
P. aeruginosa = type: cell-based
E. faecium = type: cell-based; conditions: for MBI 26 MIC, +Teicoplanin: in combination with teicoplanin; for MIC in combination: Teicoplanin + MBI 26

Question: Which results are given for “KWKSFIKKLTSAAKKVVTTAKPLISS [MBI 26]”?
Answer: killing in time kill assay (a bacterial strain): greater killing than either peptide or antibiotic agent alone; MIC Alone (A. calcoaceticus; agent alone): 16 µg/mL; MBI 26 MIC, +Erythro. (A. calcoaceticus; in combination with erythromycin): 8 µg/mL; MIC in combination (P. aeruginosa; P. aeruginosa PA024, pair Ceftriaxone / MBI 26): 32 µg/mL; MIC Alone (P. aeruginosa; P. aeruginosa PA041, agent alone): 64 µg/mL; MBI 26 MIC, +Erythro. (P. aeruginosa; P. aeruginosa PA041, in combination with erythromycin): 32 µg/mL; MIC Alone (E. faecium; E. faecium 97001 VanB, agent alone): 64 µg/mL; MBI 26 MIC, +Teicoplanin (E. faecium; E. faecium 97001 VanB): 4 µg/mL; MIC Alone (E. faecium; E. faecium 97002 VanB, agent alone): 64 µg/mL; MBI 26 MIC, +Teicoplanin (E. faecium; E. faecium 97002 VanB): 1 µg/mL; MIC Alone (E. faecium; E. faecium 97003 VanB, agent alone): 64 µg/mL; MBI 26 MIC, +Teicoplanin (E. faecium; E. faecium 97003 VanB): 1 µg/mL; MIC Alone (E. faecium; E. faecium 97005 VanB, agent alone): 64 µg/mL; MBI 26 MIC, +Teicoplanin (E. faecium; E. faecium 97005 VanB): 2 µg/mL; MIC Alone (E. faecium; E. faecium 97006 VanB, agent alone): 64 µg/mL; MBI 26 MIC, +Teicoplanin (E. faecium; E. faecium 97006 VanB): 4 µg/mL; MIC Alone (E. faecium; E. faecium 97007 VanB, agent alone): 64 µg/mL; MBI 26 MIC, +Teicoplanin (E. faecium; E. faecium 97007 VanB): 1 µg/mL; MIC Alone (E. faecium; E. faecium 97008 VanB, agent alone): 64 µg/mL; MBI 26 MIC, +Teicoplanin (E. faecium; E. faecium 97008 VanB): 4 µg/mL; MIC Alone (E. faecium; E. faecium 97009 VanB, agent alone): 32 µg/mL; MBI 26 MIC, +Teicoplanin (E. faecium; E. faecium 97009 VanB): 1 µg/mL; MIC Alone (E. faecium; E. faecium 97010 VanB, agent alone): 64 µg/mL; MBI 26 MIC, +Teicoplanin (E. faecium; E. faecium 97010 VanB): 4 µg/mL; MIC Alone (E. faecium; E. faecium 97011 VanB, agent alone): 64 µg/mL; MBI 26 MIC, +Teicoplanin (E. faecium; E. faecium 97011 VanB): 4 µg/mL; MIC Alone (E. faecium; E. faecium 97012 VanB, agent alone): 64 µg/mL; MBI 26 MIC, +Teicoplanin (E. faecium; E. faecium 97012 VanB): 4 µg/mL; MIC Alone (E. faecium; E. faecium 97013 VanB, agent alone): 64 µg/mL; MBI 26 MIC, +Teicoplanin (E. faecium; E. faecium 97013 VanB): 8 µg/mL; MIC Alone (E. faecium; E. faecium 97014 VanB, agent alone): 32 µg/mL; MBI 26 MIC, +Teicoplanin (E. faecium; E. faecium 97014 VanB): 4 µg/mL; MIC Alone (E. faecium; E. faecium 97015 VanB, agent alone): 64 µg/mL; MBI 26 MIC, +Teicoplanin (E. faecium; E. faecium 97015 VanB): 4 µg/mL; MIC Alone (E. faecium; E. faecium 97016 VanB, agent alone): 64 µg/mL; MBI 26 MIC, +Teicoplanin (E. faecium; E. faecium 97016 VanB): 4 µg/mL; MIC Alone (E. faecium; E. faecium 97017 VanA): 64 µg/mL; MIC in combination (E. faecium; E. faecium 97017 VanA): 4 µg/mL; MIC Alone (E. faecium; E. faecium 97018 VanA): 64 µg/mL; MIC in combination (E. faecium; E. faecium 97018 VanA): 8 µg/mL; MIC Alone (E. faecium; E. faecium 97019 VanA): 64 µg/mL; MIC in combination (E. faecium; E. faecium 97019 VanA): 16 µg/mL; MIC Alone (E. faecium; E. faecium 97020 VanA): 64 µg/mL; MIC in combination (E. faecium; E. faecium 97020 VanA): 16 µg/mL; MIC Alone (E. faecium; E. faecium 97021 VanA): 64 µg/mL; MIC in combination (E. faecium; E. faecium 97021 VanA): 32 µg/mL; MIC Alone (E. faecium; E. faecium 97022 VanA): 64 µg/mL; MIC in combination (E. faecium; E. faecium 97022 VanA): 4 µg/mL; MIC Alone (E. faecium; E. faecium 97023 VanA): 64 µg/mL; MIC in combination (E. faecium; E. faecium 97023 VanA): 4 µg/mL; MIC Alone (E. faecium; E. faecium 97024 VanA): 64 µg/mL; MIC in combination (E. faecium; E. faecium 97024 VanA): 8 µg/mL; MIC Alone (E. faecium; E. faecium 97025 VanA): 16 µg/mL; MIC in combination (E. faecium; E. faecium 97025 VanA): 4 µg/mL; MIC Alone (E. faecium; E. faecium 97026 VanA): 64 µg/mL; MIC in combination (E. faecium; E. faecium 97026 VanA): 16 µg/mL; MIC Alone (E. faecium; E. faecium 97027 VanA): 64 µg/mL; MIC in combination (E. faecium; E. faecium 97027 VanA): 8 µg/mL; MIC Alone (E. faecium; E. faecium 97028 VanA): 8 µg/mL; MIC in combination (E. faecium; E. faecium 97028 VanA): 8 µg/mL; MIC Alone (E. faecium; E. faecium 97029 VanA): 64 µg/mL; MIC in combination (E. faecium; E. faecium 97029 VanA): 8 µg/mL; MIC Alone (E. faecium; E. faecium 97030 VanA): 64 µg/mL; MIC in combination (E. faecium; E. faecium 97030 VanA): 32 µg/mL; MIC Alone (E. faecium; E. faecium 97031 VanA): 64 µg/mL; MIC in combination (E. faecium; E. faecium 97031 VanA): 32 µg/mL; MIC Alone (E. faecium; E. faecium 97032 VanA): 64 µg/mL; MIC in combination (E. faecium; E. faecium 97032 VanA): 8 µg/mL; MIC Alone (E. faecium; E. faecium 97033 VanA): 64 µg/mL; MIC in combination (E. faecium; E. faecium 97033 VanA): 8 µg/mL; MIC Alone (E. faecium; E. faecium 97034 VanA): 64 µg/mL; MIC in combination (E. faecium; E. faecium 97034 VanA): 8 µg/mL; MIC Alone (E. faecium; E. faecium 97035 VanA): 64 µg/mL; MIC in combination (E. faecium; E. faecium 97035 VanA): 0.5 µg/mL; MIC Alone (E. faecium; E. faecium 97036 VanA): 8 µg/mL; MIC in combination (E. faecium; E. faecium 97036 VanA): 4 µg/mL

Question: How did the MIC (bacteria; A. calcoaceticus AC003) turn out when W R I W K P K W R L P K W [MBI 11D18CN] was run?
Answer: Its MIC is 32 µg/mL.

Question: What about the MIC (bacteria; E. cloacae ECL009) of the same substance?
Answer: The MIC was 64 µg/mL.

Question: And the MIC (bacteria; E. coli ATCC 25922, agarose dilution assay)?
Answer: The MIC was 16 µg/mL.

Question: And the MIC (bacteria; E. coli ECO002)?
Answer: Its MIC is 4 µg/mL.

Question: And the MIC (bacteria; E. coli ESS, agarose dilution assay)?
Answer: Its MIC is 2 µg/mL.

Question: And the MIC (bacteria; E. coli NCTC 10418, agarose dilution assay)?
Answer: The MIC was 2 µg/mL.

Question: And the MIC (bacteria; E. faecalis EFS002)?
Answer: The MIC was 32 µg/mL.

Question: And the MIC (bacteria; E. faecium ATCC 29212, agarose dilution assay)?
Answer: The MIC was 8 µg/mL.

Question: What about the MIC (bacteria; E. faecium EFM003) of the same substance?
Answer: The MIC was 2 µg/mL.

Question: And the MIC (bacteria; H. influenzae HIN002)?
Answer: Its MIC is over 128 µg/mL.

Question: What about the MIC (bacteria; K. pneumoniae KP002) of the same substance?
Answer: Its MIC is 64 µg/mL.

Question: What about the MIC (bacteria; P. aeruginosa ATCC 27853, agarose dilution assay) of the same substance?
Answer: The MIC was 128 µg/mL.

Question: And the MIC (bacteria; P. aeruginosa NCTC 10662, agarose dilution assay)?
Answer: The MIC was 128 µg/mL.

Question: What about the MIC (bacteria; P. aeruginosa PA006) of the same substance?
Answer: The MIC was over 128 µg/mL.

Question: What about the MIC (bacteria; P. mirabilis PM003) of the same substance?
Answer: Its MIC is over 128 µg/mL.

Question: And the MIC (bacteria; P. vulgaris ATCC 13315, agarose dilution assay)?
Answer: The MIC was 32 µg/mL.

Question: What about the MIC (bacteria; P. vulgaris SBPV1) of the same substance?
Answer: The MIC was 32 µg/mL.

Question: What about the MIC (bacteria; S. aureus ATCC 29213, agarose dilution assay) of the same substance?
Answer: Its MIC is 0.5 µg/mL.

Question: What about the MIC (bacteria; S. aureus MRSA9, agarose dilution assay) of the same substance?
Answer: Its MIC is 2 µg/mL.

Question: What about the MIC (bacteria; S. aureus MRSA13, agarose dilution assay) of the same substance?
Answer: Its MIC is 8 µg/mL.

Question: What about the MIC (bacteria; S. aureus MRSA17, agarose dilution assay) of the same substance?
Answer: Its MIC is 2 µg/mL.

Question: What about the MIC (bacteria; S. aureus SA010) of the same substance?
Answer: Its MIC is 4 µg/mL.

Question: And the MIC (bacteria; S. aureus SA206, agarose dilution assay)?
Answer: The MIC was 4 µg/mL.

Question: What about the MIC (bacteria; S. epidermidis SE010) of the same substance?
Answer: Its MIC is 2 µg/mL.

Question: And the MIC (bacteria; S. maltophilia SMA003)?
Answer: Its MIC is 16 µg/mL.

Question: And the MIC (bacteria; S. marcescens SBSM2)?
Answer: Its MIC is over 128 µg/mL.

Question: And the MIC (bacteria; S. marcescens SM76, agarose dilution assay)?
Answer: Its MIC is over 128 µg/mL.

Question: And the MIC (bacteria; S. marcescens SM82, agarose dilution assay)?
Answer: The MIC was over 128 µg/mL.

Question: And the MIC (bacteria; S. pneumoniae 406LE8, agarose dilution assay)?
Answer: Its MIC is 64 µg/mL.

Question: And the MIC (bacteria; S. pneumoniae 60120, agarose dilution assay)?
Answer: Its MIC is 128 µg/mL.

Question: And the MIC (bacteria; S. pneumoniae ATCC 49619, agarose dilution assay)?
Answer: Its MIC is 64 µg/mL.

Question: What about the MIC (bacteria; S. pneumoniae SBSPN3) of the same substance?
Answer: Its MIC is 64 µg/mL.

Question: And the MIC (bacteria; S. pyogenes SPY003)?
Answer: Its MIC is 32 µg/mL.
